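The compound was tested at five concentrations on cells cultured in 96-well plates, with a 48-hour exposure period. GI50 = concentration required for 50% inhibition of growth.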 Active and inactive are the calls of the source. Rule as the data show it: active = GI50 up to about 1.1 µM and inactive = higher.
Columns and labels:
Test in all cases: growth of human tumour cells (NCI), 48 h
A549 = tested on: A549
ACHN = tested on: ACHN
HCC 2998 = tested on: HCC 2998
IGROV-1 = tested on: IGROV-1
KM12 = tested on: KM12
MDA-MB-435 = tested on: MDA-MB-435
NCI-H522 = tested on: NCI-H522
OVCAR-3 = tested on: OVCAR-3
OVCAR-4 = tested on: OVCAR-4
RPMI-8226 = tested on: RPMI-8226
SF-268 = tested on: SF-268
SF-295 = tested on: SF-295
SF-539 = tested on: SF-539
SK-MEL-28 = tested on: SK-MEL-28
SK-OV-3 = tested on: SK-OV-3
SNB-19 = tested on: SNB-19
SNB-75 = tested on: SNB-75
SW-620 = tested on: SW-620
T47D = tested on: T47D
TK-10 = tested on: TK-10

Compound | GI50 (A549) | GI50 (ACHN) | GI50 (HCC 2998) | GI50 (IGROV-1) | GI50 (KM12) | GI50 (MDA-MB-435) | GI50 (NCI-H522) | GI50 (OVCAR-3) | GI50 (OVCAR-4) | GI50 (RPMI-8226) | GI50 (SF-268) | GI50 (SF-295) | GI50 (SF-539) | GI50 (SK-MEL-28) | GI50 (SK-OV-3) | GI50 (SNB-19) | GI50 (SNB-75) | GI50 (SW-620) | GI50 (T47D) | GI50 (TK-10)
S=C(/N=C1/NCC(CN2CCN(c3ccccc3)CC2)O1)Nc1ccccc1 (configuration not stated) | 61 µM (inactive) | > 100 µM (inactive) | 57.9 µM (inactive) | > 100 µM (inactive) | 65.2 µM (inactive) | 70.8 µM (inactive) | > 100 µM (inactive) | 52.2 µM (inactive) | 49.3 µM (inactive) | 42.3 µM (inactive) | > 100 µM (inactive) | 49 µM (inactive) | 34.4 µM (inactive) | > 100 µM (inactive) | > 100 µM (inactive) | > 100 µM (inactive) | > 100 µM (inactive) | 52.7 µM (inactive) | 29.7 µM (inactive) | > 100 µM (inactive)
CCCCCCC(N)(CCCCCC)C(=O)Nn1c(C)ccc1C | 11.4 µM (inactive) | 6.55 µM (inactive) | > 100 µM (inactive) | > 100 µM (inactive) | 15.5 µM (inactive) | > 100 µM (inactive) | 53.8 µM (inactive) | > 100 µM (inactive) | > 100 µM (inactive) | 13.6 µM (inactive) | 16 µM (inactive) | > 100 µM (inactive) | – | > 100 µM (inactive) | > 100 µM (inactive) | > 100 µM (inactive) | 29.4 µM (inactive) | > 100 µM (inactive) | 13.6 µM (inactive) | > 100 µM (inactive)
NCCCN1CCN(CCCNc2ccc3nnn4c5ccccc5c(=O)c2c34)CC1 | 28.2 µM (inactive) | 12.4 µM (inactive) | 11.9 µM (inactive) | 13.5 µM (inactive) | – | 21.6 µM (inactive) | 11.3 µM (inactive) | 37.4 µM (inactive) | 11.8 µM (inactive) | 21.8 µM (inactive) | 31.3 µM (inactive) | 16.8 µM (inactive) | 13.9 µM (inactive) | > 100 µM (inactive) | 57.4 µM (inactive) | 12.8 µM (inactive) | 17.7 µM (inactive) | 11 µM (inactive) | 30.2 µM (inactive) | 24.9 µM (inactive)
COC(=O)/C=C(/C(=O)OC)c1c(C)c(C)c2c(C)cc(C)cc(C)c1-2 | 20.6 µM (inactive) | 20 µM (inactive) | 21.3 µM (inactive) | 37.9 µM (inactive) | 32.7 µM (inactive) | 4.6 µM (inactive) | 12.2 µM (inactive) | 22.1 µM (inactive) | 76.2 µM (inactive) | > 100 µM (inactive) | > 100 µM (inactive) | 20.9 µM (inactive) | 29.4 µM (inactive) | 33.1 µM (inactive) | 18.2 µM (inactive) | 58.7 µM (inactive) | – | 17.1 µM (inactive) | 80.9 µM (inactive) | 55.1 µM (inactive)
O=C1C(Br)=C(c2ccccc2)O/C1=C/C(=O)c1ccc(Br)cc1 | – | 38.5 µM (inactive) | > 100 µM (inactive) | 54.7 µM (inactive) | > 100 µM (inactive) | 42.1 µM (inactive) | 16.9 µM (inactive) | 83.2 µM (inactive) | 66.7 µM (inactive) | 19.1 µM (inactive) | 53.1 µM (inactive) | – | > 100 µM (inactive) | 51.3 µM (inactive) | – | > 100 µM (inactive) | > 100 µM (inactive) | 23.5 µM (inactive) | 32.9 µM (inactive) | 37.3 µM (inactive)
CC[C@@]12CCCN3CC[C@]4(c5cccc(OC)c5N(C(C)=O)[C@@H]4CC1)[C@H]32 [ASPIDOSPERMINE] | > 100 µM (inactive) | > 100 µM (inactive) | 23 µM (inactive) | 24.2 µM (inactive) | 84.5 µM (inactive) | 38.3 µM (inactive) | 32.3 µM (inactive) | > 100 µM (inactive) | 92.9 µM (inactive) | 38.2 µM (inactive) | > 100 µM (inactive) | 46.6 µM (inactive) | 78.5 µM (inactive) | 80.2 µM (inactive) | > 100 µM (inactive) | > 100 µM (inactive) | – | > 100 µM (inactive) | > 100 µM (inactive) | 56.5 µM (inactive)
CCCCCCCCCCCCCCCC[N+](C)(C)CCl | 5 µM (inactive) | 2.66 µM (inactive) | 1.66 µM (inactive) | 0.585 µM (active) | 1.46 µM (inactive) | 3.07 µM (inactive) | – | 3.03 µM (inactive) | 2.86 µM (inactive) | 1.76 µM (inactive) | 2.74 µM (inactive) | 2.26 µM (inactive) | 2.4 µM (inactive) | 5.19 µM (inactive) | 6.87 µM (inactive) | 1.66 µM (inactive) | 1.86 µM (inactive) | 2.69 µM (inactive) | 3.57 µM (inactive) | 2.25 µM (inactive)

Source: ChEMBL document CHEMBL1201862, “PubChem BioAssay data set” (2004)
